Laboratory results reported in patent US5198552A, “Indole derivative having antiviral, interferon-inducing and immunomodulatory effects” (priority 1991, dated 1993).
Structures can show the parent of a compound that is named as a salt. Where two headings read alike, the source gives them in different places.

Assays:
[1] = tested on: peritoneal macrophages; experiment: Absorbing capacity of mouse peritoneal macrophages (neutral red); type: in vivo, mice
[2] = tested on: antibody-producing cells; experiment: Antibody-producing cells in the spleen of mice immunized with sheep erythrocytes; type: in vivo
[3] = tested on: stem cells; experiment: Inactivation of stem cells with allogenic lymphocytes (graft versus host, spleen endocolonies); type: in vivo, mice
[4] = tested on: interferon; conditions: cell culture; cited from earlier work
[5] = tested on: interferon; conditions: mouse blood serum; cited from earlier work
[6] = tested on: interferon; conditions: human blood serum; cited from earlier work
[7] = cited from earlier work
[8] = tested on: influenza A/B viruses; type: cell-based
[9] = tested on: influenza B virus; experiment: Activity against influenza B virus; type: cell-based; conditions: hydrochloride
Protocol: The antiviral effect of the preparation against influenza A/B viruses was tested on a hen embryo fabroblast cell culture.

[10] = tested on: influenza A virus; experiment: Activity against influenza A virus; type: cell-based
[11] = tested on: influenza A/B viruses; experiment: Medicinal effect on experimental influenzal pneumonia of mice induced by influenza A/B viruses; type: in vivo
[12] = tested on: influenza viruses; experiment: Virucidal action on influenza viruses
[13] = Maximum tolerable concentration for chick embryo fibroblasts; type: cell-based; conditions: chicken
[14] = in vivo; cited from earlier work
[15] = in vivo; conditions: mouse, po
[16] = 1 day after single administration
[17] = 2 day after single administration
[18] = 3 day after single administration

## c1ccc([C@H]2CN3CCSC3=N2)cc1 [Levamisole, (-) 2,3,5,6,-tetrahydro-6-phenylimidazo-/2.1.b/-thiazole hydrochloride, reference compound]
[1]; [16]
  Absorbing Capacity of Peritoneal Macrophages: 24.2 ± 4.5 mg/6 × 10^6 cells
  Absorbing Capacity, percent of control: 116 ± 21%
[1]; [17]
  Absorbing Capacity of Peritoneal Macrophages: 27.7 ± 3.2 mg/6 × 10^6 cells
  Absorbing Capacity, percent of control: 121 ± 14%
[1]; [18]
  Absorbing Capacity of Peritoneal Macrophages: 32.5 ± 2.4 mg/6 × 10^6 cells
  Absorbing Capacity, percent of control: 135 ± 9.9%
[1]; by 2-3 days after a single administration, p<0.05
  absorbing capacity of macrophages: 138±11%
[1]; mouse, in vivo
  effect on counts of macrophages washed off the peritoneal cavity: no effect on counts of macrophages
[2]; 7-17 day of tumor development, single (3 days prior to immunization) or 5-times daily
  immunopotentiating effect on tumor-carrier animals: inefficient
[2]; intact mice, 5 times at a 5-day interval
  Antibody-producing cells in spleen (% of control): 170 ± 15.1%
[2]; intact mice, during 3 days, daily
  Antibody-producing cells in spleen (% of control): 164 ± 6.1%
[2]; irradiated animals
  immunostimulating effect on irradiated animals: of low efficacy
[2]; totally irradiated (2 Gr.), 5 times at a 5-day interval
  Antibody-producing cells in spleen (% of control): 104 ± 6.0%
[2]; totally irradiated (2 Gr.), during 3 days, daily
  Antibody-producing cells in spleen (% of control): 174 ± 24.0%
[2]; totally irradiated tumor-carriers
  immunopotentiating effect on totally irradiated tumor-carrier animals: also had the immunopotentiating effect
[2]; totally irradiated tumor-carriers (2 Gr.), 5 times at a 5-day interval
  Antibody-producing cells in spleen (% of control): 402 ± 12.5%
[2]; totally irradiated tumor-carriers (2 Gr.), during 3 days, daily
  Antibody-producing cells in spleen (% of control): 86.0 ± 35.0%
[2]; tumor-carriers, 5 times at a 5-day interval
  Antibody-producing cells in spleen (% of control): 91 ± 14.0%
[2]; tumor-carriers, during 3 days, daily
  Antibody-producing cells in spleen (% of control): 14 ± 23.0%
[3]; 1.25 × 10^6 lymphocytes
  The counts of spleen endocolonies (M ± m): 2.3 ± 0.5
[3]; 2.5 × 10^6 lymphocytes
  The counts of spleen endocolonies (M ± m): 1.1 ± 0.2
[3]; 5.0 × 10^6 lymphocytes
  The counts of spleen endocolonies (M ± m): 0.7 ± 0.2
[3]; no lymphocytes given, hydrochloride
  The counts of spleen endocolonies (M ± m): 1.1 ± 0.3
[3]; no lymphocytes given, listed as levamisole, hydrochloride
  The counts of spleen endocolonies (M ± m): somewhat decreases the yield of the spleen colonies
[3]; preparation 100 mg per 1 kg orally, levamisole 5 mg per 1 kg
  effect on yield of spleen colonies under graft versus host conditions: identical but a less pronounced effect
[4]
  interferon titers: 80-160 U/ml
[5]
  interferon titers: 160-320 U/ml
[6]
  interferon titers: 40-80 U/ml
[7]; in vivo
  side-effects: a headache, sleep disturbances, olfactory hallicinations (odour changes), allergic skin hypersensitivity, influenza-like and neurologic symptoms
  toxicity: highly toxic
[7]; treatment as an immunomodulator
  agranulocytosis: decrease of neutrophile to a value: below 25%

## CC(N)C12CC3CC(CC(C3)C1)C2 (stereo not shown) [Remantadine, alfa-methyl-1-adamantanemethylamine hydrochloride]
[8]
  inhibition of influenza A/B virus reproduction / chemotherapeutical effect: Inhibits the reproduc-
[9]
  efficacy against influenza B virus: It is inefficient against
[9]; listed as remantadine
  efficacy against influenza B virus: inefficient against influenza B virus
[10]
  efficacy against influenza A virus: efficient only against influenza A virus
[11]
  medicinal (chemotherapeutical) effect on influenzal pneumonia: Exert a medicinal effect
[12]
  virucidal action on influenza viruses: No virucidal action
[13]
  MNTC: 20 µg/mL
[14]
  side-effect: side-effect on a central nervous system
[15]
  LD50: 340 mg/kg
